In the oligonucleotide strings, read from the 5' end, every base follows the letter of its sugar. An asterisk marks phosphorothioate; unmarked linkages are phosphodiester. Other units and linkages are bracketed, terminal groups are in braces. A string of capitals states the bases alone. e = 2'-O-(2-methoxyethyl) (MOE); [5mC] = 5-methylcytosine
Test system: IL-12 mRNA
Assay: IL-12 mRNA in LPS-activated primary murine macrophages
Assay type: cell-based, mouse
Conditions: for IL-12 mRNA expression, −IFN % UTC: 300 nM oligomeric compound and LPS, no IFN-gamma pretreatment, single experiment; for IL-12 mRNA expression, −IFN % UTC / IL-12 mRNA expression, +IFN % UTC: normalized to LPS-treated cells without oligomeric compound; for IL-12 mRNA expression, +IFN % UTC: 300 nM oligomeric compound, stimulation with IFN-gamma and LPS, average of 2 experiments; for IL-12 mRNA expression, % UTC: LPS, average of 3 treatments

Substance | IL-12 mRNA expression, −IFN % UTC [% UTC] | IL-12 mRNA expression, +IFN % UTC [% UTC] | further results
328133 (eT*eG*eA*eA*eG*eG*eT*eT*e[5mC]*eG*eG*eA*eG*eA*eT*eA*eG*eG*e[5mC]*eT*eA; anti-miR) [compound 328133] | 165 | 62 | –
328105 (antisense e[5mC]*e[5mC]*eT*e[5mC]*eA*eA*eT*eT*eA*eT*eT*eG*eG*eA*eA*eA*eT*e[5mC]*eA*e[5mC]*eA) [compound 328105] | 108 | 57 | –
328129 (antisense eA*eG*e[5mC]*e[5mC]*eT*e[5mC]*e[5mC]*eT*eT*e[5mC]*eT*eT*e[5mC]*eT*e[5mC]*eG*eT*eA*e[5mC]*eT*eA) [compound 328129] | 87 | 10 | –
328117 (antisense eT*e[5mC]*e[5mC]*eA*e[5mC]*eA*eA*eA*eG*e[5mC]*eT*eG*eA*eA*e[5mC]*eA*eT*eG*eT*e[5mC]*eT) [compound 328117] | 162 | 72 | –
327921 (antisense e[5mC]*eT*eT*e[5mC]*e[5mC]*eA*eG*eT*e[5mC]*eG*eG*eG*eG*eA*eT*eG*eT*eT*eT*eA*e[5mC]*eA) [compound 327921] | 325 | 24 | IL-12 mRNA expression, % UTC (75 nM, +IFN): 14 % UTC; IL-12 mRNA expression, % UTC (75 nM, −IFN): 109 % UTC; IL-12 mRNA expression, % UTC (150 nM, +IFN): 7 % UTC; IL-12 mRNA expression, % UTC (150 nM, −IFN): 88 % UTC; IL-12 mRNA expression, % UTC (300 nM, +IFN): 5 % UTC; IL-12 mRNA expression, % UTC (300 nM, −IFN): 67 % UTC; IL-12 mRNA expression, % UTC (600 nM, +IFN): 5 % UTC; IL-12 mRNA expression, % UTC (600 nM, −IFN): 53 % UTC
327956 (antisense e[5mC]*eA*e[5mC]*eA*eG*eT*eT*eG*e[5mC]*e[5mC]*eA*eG*e[5mC]*eT*eG*eA*eG*eA*eT*eT*eA) [compound 327956] | 212 | 59 | –
342673 (antisense eA*eG*eA*e[5mC]*eT*eA*eG*e[5mC]*eG*eG*eT*eA*eT*e[5mC]*eT*eT*eT*eA*eT*e[5mC]*e[5mC]*e[5mC]) [compound 342673] | 91 | – | –
327927 (antisense eT*eG*eT*eA*eA*eA*e[5mC]*e[5mC]*eA*eT*eG*eA*eT*eG*eT*eG*e[5mC]*eT*eG*e[5mC]*eT*eA) [compound 327927] | 164 | 33 | –
327917 (antisense eT*e[5mC]*eA*eA*e[5mC]*eA*eT*e[5mC]*eA*eG*eT*e[5mC]*eT*eG*eA*eT*eA*eA*eG*e[5mC]*eT*eA) [compound 327917] | 225 | 35 | –
327928 (antisense eA*eA*e[5mC]*e[5mC]*eG*eA*eT*eT*eT*e[5mC]*eA*eG*eA*eT*eG*eG*eT*eG*e[5mC]*eT*eA*eG) [compound 327928] | 201 | 61 | –
328137 (eG*eT*eA*eA*eG*e[5mC]*eG*e[5mC]*eA*eG*e[5mC]*eT*e[5mC]*e[5mC]*eA*e[5mC]*eA*eG*eG*e[5mC]*eT; anti-miR) [compound 328137] | 213 | 12 | –
327912 (antisense eA*eA*e[5mC]*eT*eA*eT*eA*e[5mC]*eA*eA*eT*e[5mC]*eT*eA*e[5mC]*eT*eA*e[5mC]*e[5mC]*eT*e[5mC]*eA) [compound 327912] | 206 | 39 | –
328138 (eG*eA*eG*e[5mC]*eT*eG*e[5mC]*eT*e[5mC]*eA*eG*e[5mC]*eT*eG*eG*e[5mC]*e[5mC]*eA*eT*e[5mC]*eA; anti-miR) [compound 328138] | 277 | 31 | –
327967 (antisense eA*e[5mC]*eT*eG*eT*eA*e[5mC]*eA*eA*eA*e[5mC]*eT*eA*e[5mC]*eT*eA*e[5mC]*e[5mC]*eT*e[5mC]*eA) [compound 327967] | 203 | 43 | –
328110 (antisense eG*eA*eT*eA*eA*eA*eG*e[5mC]*e[5mC]*eA*eA*eT*eA*eA*eA*e[5mC]*eT*eG*eT*e[5mC]*eA) [compound 328110] | 221 | 8 | –
327931 (antisense eA*eA*e[5mC]*e[5mC]*eA*eT*eA*e[5mC]*eA*eA*e[5mC]*e[5mC]*eT*eA*e[5mC]*eT*eA*e[5mC]*e[5mC]*eT*e[5mC]*eA) [compound 327931] | 105 | 48 | –
328123 (antisense eT*eT*eA*e[5mC]*eA*eG*eG*eT*eG*e[5mC]*eT*eG*e[5mC]*eA*eA*e[5mC]*eT*eG*eG*eA*eA) [compound 328123] | 176 | 14 | –
